Format in all cases: biochemical
One assay concerns the target FGFR3 (Homo sapiens, UniProt P22607). As to the kind of experiment: Kinase IC50, 33P labeled isotope method. The conditions noted are these: 20 μM ATP.
The next assay has as its target CDK2/cyclin A (Homo sapiens, UniProt P24941). The assay can be described thus: Kinase IC50, 33P labeled isotope method.
The target of the next assay is FGFR1 (Homo sapiens, UniProt P11362). As to the kind of experiment: Kinase IC50, 33P labeled isotope method.
In another assay the target is JNK1 (Homo sapiens, UniProt P45983). The assay can be described thus: Kinase IC50, 33P labeled isotope method.
For another assay, the target named is KDR/VEGFR2 (Homo sapiens, UniProt P35968). The assay can be described thus: Kinase IC50, 33P labeled isotope method.
The next assay has as its target FGFR2 (Homo sapiens, UniProt P21802). As to the kind of experiment: Kinase IC50, 33P labeled isotope method.
The target of the next assay is CDK3/cyclin E (Homo sapiens, UniProt Q00526). As to the kind of experiment: Kinase IC50, 33P labeled isotope method.
A further assay has as its target T1, Aurora A (Homo sapiens, UniProt O14965).
T1 construct: purchased
T1 sequence (O14965 1-403): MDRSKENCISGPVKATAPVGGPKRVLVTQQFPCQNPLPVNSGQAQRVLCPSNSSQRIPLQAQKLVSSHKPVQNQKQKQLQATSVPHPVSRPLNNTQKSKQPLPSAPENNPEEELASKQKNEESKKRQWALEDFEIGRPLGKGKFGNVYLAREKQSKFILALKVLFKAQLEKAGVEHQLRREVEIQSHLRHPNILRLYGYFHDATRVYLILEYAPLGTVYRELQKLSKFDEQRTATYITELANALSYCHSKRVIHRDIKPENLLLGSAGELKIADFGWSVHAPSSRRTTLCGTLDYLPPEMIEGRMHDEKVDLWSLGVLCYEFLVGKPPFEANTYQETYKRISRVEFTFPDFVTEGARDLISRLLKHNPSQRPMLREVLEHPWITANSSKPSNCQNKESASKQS
The assay can be described thus: Inhibitory activity to Aurora A (FRET). The conditions noted are these: read-out: Aurora A inhibition % (1 × 10^−6 mol/L). In outline:
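FRET kinase assay of Aurora A with peptide substrate in HEPES pH 7.5, BRIJ-35, MgCl2, EDTA; 1 h reaction, then 1 h development before stop. Ex 400 nm, emission 445 nm (coumarin) and 520 nm (fluorescein); 0% and 100% phosphorylation controls set inhibition scale.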

A further assay addresses CDK1/cyclin E (Homo sapiens, UniProt P06493). As to the kind of experiment: Kinase IC50, 33P labeled isotope method.
A further assay has as its target CDK2/Cyclin A1 (Homo sapiens, UniProt P24941). The assay can be described thus: Kinase IC50, 33P labeled isotope method.
A further assay deals with CDK7/cyclin H (Homo sapiens, UniProt P50613). As to the kind of experiment: Kinase IC50, 33P labeled isotope method.
A further assay addresses JAK2 (Homo sapiens, UniProt O60674). The assay can be described thus: Kinase IC50, 33P labeled isotope method.
The next assay deals with T2, FLT1/VEGFR1 (Homo sapiens, UniProt P17948).
T2 sequence (P17948 827-1158 limits assumed): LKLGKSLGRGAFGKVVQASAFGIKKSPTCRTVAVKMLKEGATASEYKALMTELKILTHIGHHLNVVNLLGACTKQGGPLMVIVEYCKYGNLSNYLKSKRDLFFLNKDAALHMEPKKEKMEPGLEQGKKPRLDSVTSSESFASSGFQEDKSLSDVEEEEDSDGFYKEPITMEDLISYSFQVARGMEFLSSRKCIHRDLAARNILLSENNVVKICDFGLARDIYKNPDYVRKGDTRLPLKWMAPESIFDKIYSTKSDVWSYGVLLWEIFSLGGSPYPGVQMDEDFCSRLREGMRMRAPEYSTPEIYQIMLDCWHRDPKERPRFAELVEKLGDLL
As to the kind of experiment: Kinase IC50, 33P labeled isotope method.

For another assay, the target named is CDK4/cyclin D1 (Homo sapiens, UniProt P11802). As to the kind of experiment: Kinase IC50, 33P labeled isotope method.
A further assay deals with CDK1/cyclin A (Homo sapiens, UniProt P06493). The assay can be described thus: Kinase IC50, 33P labeled isotope method.
For a further assay, the target named is JNK2 (Homo sapiens, UniProt P45984). As to the kind of experiment: Kinase IC50, 33P labeled isotope method.
A further assay deals with T3, CDK2/A (Homo sapiens, UniProt P24941).
T3 construct: purchased
The assay can be described thus: Inhibitory activity to CDK2 (FRET). The conditions noted are these: read-out: CDK2 inhibition % (1 × 10^−6 mol/L). In outline: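 FRET-based kinase assay using CDK2/cyclin A with peptide substrate in HEPES pH 7.5 buffer (MgCl2, BRIJ-35, EDTA). The kinase reaction ran 1 h, followed by development reagent for 1 h and a stop step. Inhibition calculated relative to phospho-peptide (100%) and ATP-free (0%) phosphorylation controls.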

A further assay deals with T4, ERK7/MAPK15 (Homo sapiens, UniProt Q8TD08).
T4 sequence (Q8TD08 13-304 limits assumed): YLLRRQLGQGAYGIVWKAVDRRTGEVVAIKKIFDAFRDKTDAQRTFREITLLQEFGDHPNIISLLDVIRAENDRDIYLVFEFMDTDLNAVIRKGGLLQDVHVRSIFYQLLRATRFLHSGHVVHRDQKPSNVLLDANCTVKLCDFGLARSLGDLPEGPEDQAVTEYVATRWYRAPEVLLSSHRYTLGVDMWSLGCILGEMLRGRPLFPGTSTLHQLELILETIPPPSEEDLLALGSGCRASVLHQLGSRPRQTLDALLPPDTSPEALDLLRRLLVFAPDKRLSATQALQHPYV
As to the kind of experiment: Kinase IC50, 33P labeled isotope method.

The next assay concerns the target CDK5/p35 (Homo sapiens, UniProt Q00535). The assay can be described thus: Kinase IC50, 33P labeled isotope method.
The next assay addresses CDK1/cyclin B (Homo sapiens, UniProt P06493). As to the kind of experiment: Kinase IC50, 33P labeled isotope method.
[1] abbreviates: 20 μM ATP, read-out: IC50* FGFR1.
Where [2] appears, read: 20 μM ATP, read-out: IC50* JNK1.
The mark [3] stands for this setting: 20 μM ATP, read-out: IC50* FGFR2.
The mark [4] stands for this setting: 20 μM ATP, read-out: IC50* CDK1/cyclin E.
The mark [5] stands for this setting: 20 μM ATP, read-out: IC50* CDK7/cyclin H.
Setting [6] is: 20 μM ATP, read-out: IC50* JAK2.
The mark [7] stands for this setting: 20 μM ATP, read-out: IC50* JNK2.
[8] abbreviates: 20 μM ATP, read-out: IC50* CDK5/p35.
Where [9] appears, read: 20 μM ATP, read-out: IC50* CDK1/cyclin B.
Setting [10] is: 20 μM ATP, read-out: IC50* CDK2/cyclin A.
[11] abbreviates: 20 μM ATP, read-out: IC50* KDR/VEGFR2.
Where [12] appears, read: 20 μM ATP, read-out: IC50* CDK3/cyclin E.
Setting [13] is: 20 μM ATP, read-out: IC50* CDK2/Cyclin A1.
[14] abbreviates: 20 μM ATP, read-out: IC50* FLT1/VEGFR1.
Setting [15] is: 20 μM ATP, read-out: IC50* CDK4/cyclin D1.
The mark [16] stands for this setting: 20 μM ATP, read-out: IC50* CDK1/cyclin A.
Setting [17] is: 20 μM ATP, read-out: IC50* ERK7/MAPK15.

The structures appear in SMILES notation. Where two headings read alike, the source gives them in different places.

CDK4/cyclin D1, sequence (P11802 6-295 limits assumed): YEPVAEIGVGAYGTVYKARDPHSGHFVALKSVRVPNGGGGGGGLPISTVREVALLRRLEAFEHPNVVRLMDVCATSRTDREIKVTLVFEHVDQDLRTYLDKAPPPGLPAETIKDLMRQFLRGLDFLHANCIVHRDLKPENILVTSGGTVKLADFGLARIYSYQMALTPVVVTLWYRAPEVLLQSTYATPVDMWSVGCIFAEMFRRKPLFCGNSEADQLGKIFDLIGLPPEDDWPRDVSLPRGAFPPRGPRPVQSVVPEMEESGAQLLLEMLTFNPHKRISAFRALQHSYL
CDK4/cyclin D1, sequence (P24385 whole entry partner): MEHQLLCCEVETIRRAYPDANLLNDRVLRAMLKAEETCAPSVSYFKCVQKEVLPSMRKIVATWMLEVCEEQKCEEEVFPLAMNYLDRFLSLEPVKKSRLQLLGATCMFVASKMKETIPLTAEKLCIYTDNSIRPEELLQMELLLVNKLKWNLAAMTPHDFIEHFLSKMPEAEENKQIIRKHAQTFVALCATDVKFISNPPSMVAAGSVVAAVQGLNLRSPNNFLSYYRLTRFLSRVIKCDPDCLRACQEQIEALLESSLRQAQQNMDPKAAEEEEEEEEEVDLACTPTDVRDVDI
FGFR2, sequence (P21802 481-770 limits assumed): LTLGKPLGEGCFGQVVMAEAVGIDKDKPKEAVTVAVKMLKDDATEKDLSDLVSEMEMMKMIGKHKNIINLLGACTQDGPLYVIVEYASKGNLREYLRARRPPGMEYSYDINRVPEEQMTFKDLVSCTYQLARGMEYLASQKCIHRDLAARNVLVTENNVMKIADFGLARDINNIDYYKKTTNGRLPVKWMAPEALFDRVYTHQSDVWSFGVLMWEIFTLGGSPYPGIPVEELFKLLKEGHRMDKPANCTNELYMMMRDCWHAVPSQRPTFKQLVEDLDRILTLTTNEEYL
JAK2, sequence (O60674 849-1124 limits assumed): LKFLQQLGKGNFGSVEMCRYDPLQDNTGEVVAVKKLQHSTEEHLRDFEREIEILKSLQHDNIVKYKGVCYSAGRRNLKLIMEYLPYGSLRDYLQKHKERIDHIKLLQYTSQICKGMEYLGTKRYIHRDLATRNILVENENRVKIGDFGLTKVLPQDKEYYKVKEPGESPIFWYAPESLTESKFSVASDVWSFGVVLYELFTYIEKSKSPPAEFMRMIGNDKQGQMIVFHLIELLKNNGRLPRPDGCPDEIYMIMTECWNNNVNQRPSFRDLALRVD
CDK5/p35, sequence (Q00535 4-286 limits assumed): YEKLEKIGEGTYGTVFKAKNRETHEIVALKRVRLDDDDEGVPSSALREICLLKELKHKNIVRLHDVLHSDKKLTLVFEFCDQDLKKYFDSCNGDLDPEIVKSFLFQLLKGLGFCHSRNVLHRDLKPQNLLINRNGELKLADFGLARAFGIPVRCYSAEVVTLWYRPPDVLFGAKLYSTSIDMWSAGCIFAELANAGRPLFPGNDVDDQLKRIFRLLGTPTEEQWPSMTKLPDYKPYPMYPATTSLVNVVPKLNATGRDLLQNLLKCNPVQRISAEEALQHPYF
CDK5/p35, sequence (Q15078 whole entry partner): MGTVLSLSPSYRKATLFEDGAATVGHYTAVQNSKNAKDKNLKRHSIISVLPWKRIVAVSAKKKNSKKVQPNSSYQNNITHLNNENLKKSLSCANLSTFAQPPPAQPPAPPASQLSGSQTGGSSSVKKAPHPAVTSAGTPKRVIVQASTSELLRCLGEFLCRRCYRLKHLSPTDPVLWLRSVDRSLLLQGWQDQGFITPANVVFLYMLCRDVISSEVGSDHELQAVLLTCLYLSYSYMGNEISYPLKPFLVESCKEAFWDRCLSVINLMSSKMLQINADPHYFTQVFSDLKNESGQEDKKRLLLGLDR
FGFR3, sequence (P22607 472-761 limits assumed): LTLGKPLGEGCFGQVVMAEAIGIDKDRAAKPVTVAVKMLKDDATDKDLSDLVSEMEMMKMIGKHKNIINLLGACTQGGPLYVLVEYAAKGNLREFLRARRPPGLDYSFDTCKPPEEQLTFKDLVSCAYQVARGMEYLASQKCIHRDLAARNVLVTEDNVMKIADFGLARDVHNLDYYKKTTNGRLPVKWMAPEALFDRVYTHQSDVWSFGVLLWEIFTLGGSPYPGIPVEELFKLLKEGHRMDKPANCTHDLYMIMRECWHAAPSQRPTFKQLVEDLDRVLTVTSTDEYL
JNK1, sequence (P45983 26-321 limits assumed): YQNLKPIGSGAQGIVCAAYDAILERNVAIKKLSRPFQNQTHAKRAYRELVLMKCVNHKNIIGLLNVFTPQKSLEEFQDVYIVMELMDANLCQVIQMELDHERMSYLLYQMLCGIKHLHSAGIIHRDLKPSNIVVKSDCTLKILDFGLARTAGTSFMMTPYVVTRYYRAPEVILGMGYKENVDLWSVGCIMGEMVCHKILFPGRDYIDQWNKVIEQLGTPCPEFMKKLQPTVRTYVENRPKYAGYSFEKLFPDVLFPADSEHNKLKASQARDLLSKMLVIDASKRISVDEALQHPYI
KDR/VEGFR2, sequence (P35968 834-1162 limits assumed): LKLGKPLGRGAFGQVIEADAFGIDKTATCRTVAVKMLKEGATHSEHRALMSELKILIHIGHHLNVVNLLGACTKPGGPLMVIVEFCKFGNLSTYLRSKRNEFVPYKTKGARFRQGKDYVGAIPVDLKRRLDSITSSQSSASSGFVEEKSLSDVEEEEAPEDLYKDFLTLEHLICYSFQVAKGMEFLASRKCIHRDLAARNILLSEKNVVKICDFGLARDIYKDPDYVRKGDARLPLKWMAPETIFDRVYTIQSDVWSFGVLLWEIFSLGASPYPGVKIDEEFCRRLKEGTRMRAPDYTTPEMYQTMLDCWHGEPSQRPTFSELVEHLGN
JNK2, sequence (P45984 26-321 limits assumed): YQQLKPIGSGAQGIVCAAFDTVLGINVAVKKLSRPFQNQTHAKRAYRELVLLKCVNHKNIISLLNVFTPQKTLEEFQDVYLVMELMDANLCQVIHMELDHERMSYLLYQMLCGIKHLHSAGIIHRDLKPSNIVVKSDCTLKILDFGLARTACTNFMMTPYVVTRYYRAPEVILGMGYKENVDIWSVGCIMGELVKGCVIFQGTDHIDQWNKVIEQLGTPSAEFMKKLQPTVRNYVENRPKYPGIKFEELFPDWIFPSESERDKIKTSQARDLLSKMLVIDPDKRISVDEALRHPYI
FGFR1, sequence (P11362 478-767 limits assumed): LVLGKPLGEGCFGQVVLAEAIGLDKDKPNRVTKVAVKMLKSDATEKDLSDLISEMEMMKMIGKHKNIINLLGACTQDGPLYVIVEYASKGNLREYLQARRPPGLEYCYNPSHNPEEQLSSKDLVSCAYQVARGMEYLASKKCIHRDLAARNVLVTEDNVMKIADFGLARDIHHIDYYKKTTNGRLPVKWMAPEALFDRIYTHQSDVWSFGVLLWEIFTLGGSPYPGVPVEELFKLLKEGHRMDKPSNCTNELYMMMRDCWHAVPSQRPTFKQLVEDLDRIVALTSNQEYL
CDK3/cyclin E, sequence (Q00526 4-286 limits assumed): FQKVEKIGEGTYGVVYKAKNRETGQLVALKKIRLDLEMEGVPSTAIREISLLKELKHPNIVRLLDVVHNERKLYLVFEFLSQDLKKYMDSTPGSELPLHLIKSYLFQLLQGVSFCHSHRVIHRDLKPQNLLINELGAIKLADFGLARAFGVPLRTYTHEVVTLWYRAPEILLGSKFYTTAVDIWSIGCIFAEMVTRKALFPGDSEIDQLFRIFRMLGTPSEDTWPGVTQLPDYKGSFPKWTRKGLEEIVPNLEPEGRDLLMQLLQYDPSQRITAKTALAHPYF
CDK3/cyclin E, sequence (P24864 whole entry partner): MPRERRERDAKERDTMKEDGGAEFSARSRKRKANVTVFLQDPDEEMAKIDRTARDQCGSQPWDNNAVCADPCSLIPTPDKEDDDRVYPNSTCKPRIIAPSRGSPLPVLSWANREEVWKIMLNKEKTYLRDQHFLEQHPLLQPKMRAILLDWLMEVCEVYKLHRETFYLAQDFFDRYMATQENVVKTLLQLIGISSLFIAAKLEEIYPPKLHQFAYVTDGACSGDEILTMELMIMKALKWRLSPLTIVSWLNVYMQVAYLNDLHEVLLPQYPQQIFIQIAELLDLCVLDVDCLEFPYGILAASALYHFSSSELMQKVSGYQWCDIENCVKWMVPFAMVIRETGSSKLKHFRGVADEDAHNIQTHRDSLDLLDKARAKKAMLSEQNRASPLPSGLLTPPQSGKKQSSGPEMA
CDK1/cyclin E, sequence (P06493 4-287 limits assumed): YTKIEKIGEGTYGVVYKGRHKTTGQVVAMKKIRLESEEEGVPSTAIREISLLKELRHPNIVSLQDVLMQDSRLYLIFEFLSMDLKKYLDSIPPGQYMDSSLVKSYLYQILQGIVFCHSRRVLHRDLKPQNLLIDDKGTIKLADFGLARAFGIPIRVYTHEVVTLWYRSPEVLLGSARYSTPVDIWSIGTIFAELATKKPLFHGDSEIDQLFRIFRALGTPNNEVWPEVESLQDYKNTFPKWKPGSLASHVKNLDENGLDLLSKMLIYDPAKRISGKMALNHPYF
CDK1/cyclin E, sequence (P24864 whole entry partner): as the sequence (P24864 whole entry partner) above

For `CN1CCN(Cc2ccc(NC(=O)c3n[nH]cc3Nc3ncnc4sccc34)cc2)CC1` [Compound I-1, 4-(4-thieno[2,3-d]pyrimidinylamino)-N-(4-((4-methyl-1-piperazinyl)methyl)phenyl)-1H-3-pyrazole carboxamide], the IC50 is 807 nM at FGFR3; 15 nM on CDK2/cyclin A; 304 nM at FGFR1 (setting [1]); at least 1000 nM at JNK1 (setting [2]); 35 nM against KDR/VEGFR2; 233 nM on FGFR2 (setting [3]). In addition, the IC50 was 190 nM against CDK3/cyclin E; 96 nM at CDK1/cyclin E (setting [4]); 9 nM against CDK2/Cyclin A1; 522 nM at CDK7/cyclin H (setting [5]); 795 nM on JAK2 (setting [6]); 20 nM against FLT1/VEGFR1. The IC50 on CDK4/cyclin D1 was 6 nM; against CDK1/cyclin A, 157 nM; on JNK2 (setting [7]), at least 1000 nM; against ERK7/MAPK15, 7 nM; on CDK5/p35 (setting [8]) it was 15 nM; on CDK1/cyclin B (setting [9]), 87 nM. For the same compound, the inhibition at 1 µM at Aurora A stood at 67.9%; at CDK2/A, 70.9%.

Turning to `O=C(Nc1ccc(CN2CCOCC2)cc1)c1n[nH]cc1Nc1ncnc2sccc12` [Compound I-2, 4-(4-thieno[2,3-d]pyrimidinylamino)-N-(4-((4-morpholinyl)methyl)phenyl)-1H-3-pyrazolecarboxamide], the inhibition at 1 µM at Aurora A is 52.2%; on CDK2/A, 46.6%.

Consider `Cc1cc2c(Nc3c[nH]nc3C(=O)Nc3ccc(CN4CCN(C)CC4)cc3)ncnc2s1` [Compound I-3, 4-(4-(6-methylthieno[2,3-d]pyrimidinyl)amino)-N-(4-((4-methyl-1-piperazinyl)methyl)phenyl)-1H-3-pyrazolecarboxamide], for which the IC50 against FGFR3 came to 723 nM; at CDK2/cyclin A (setting [10]), 14 nM; at FGFR1 (setting [1]), 274 nM; at JNK1 (setting [2]) it was 1130 nM; at KDR/VEGFR2 (setting [11]), 33 nM; at FGFR2 (setting [3]) it was 210 nM. The IC50 came out at 171 nM at CDK3/cyclin E (setting [12]); 87 nM on CDK1/cyclin E (setting [4]); 9 nM on CDK2/Cyclin A1 (setting [13]); 495 nM at CDK7/cyclin H (setting [5]); 716 nM at JAK2 (setting [6]); 19 nM at FLT1/VEGFR1 (setting [14]). Besides, the IC50 on CDK4/cyclin D1 (setting [15]) came to 6 nM; on CDK1/cyclin A (setting [16]), 142 nM; on JNK2 (setting [7]) it was 1170 nM; on ERK7/MAPK15 (setting [17]) it was 7 nM; at CDK5/p35 (setting [8]) it was 13 nM; at CDK1/cyclin B (setting [9]) it was 79 nM. The inhibition at 1 µM at Aurora A is 75.2%; on CDK2/A, 62.5%.

`CN1CCN(Cc2ccc(NC(=O)c3n[nH]cc3Nc3ncnc4[nH]ccc34)cc2)CC1` [Compound I-11, 4-(4-(7H-pyrrolo[2,3-d]pyrimidinyl)amino)-N-(4-((4-methyl-1-piperazinyl)methyl)phenyl)-1H-3-pyrazolecarboxamide]: the IC50 against FGFR3 came out at 657 nM; against CDK2/cyclin A it was 13 nM; against FGFR1, 247 nM; at JNK1, 1240 nM; against KDR/VEGFR2, 31 nM; against FGFR2, 189 nM. The IC50 against CDK3/cyclin E was found to be 155 nM; on CDK1/cyclin E it was 78 nM; at CDK2/Cyclin A1, 8 nM; against CDK7/cyclin H, 471 nM; on JAK2 it was 644 nM; at FLT1/VEGFR1, 19 nM. Further, the IC50 on CDK4/cyclin D1 amounted to 6 nM; at CDK1/cyclin A it was 128 nM; at JNK2, 1320 nM; at ERK7/MAPK15, 7 nM; against CDK5/p35, 12 nM; against CDK1/cyclin B it was 71 nM. Besides, the inhibition at 1 µM on Aurora A is 64.3%; on CDK2/A, 67.9%.

Regarding `Cc1cc2c(Nc3c[nH]nc3C(=O)Nc3ccc(CN4CCN(C)CC4)cc3)ncnc2[nH]1` [Compound I-13, 4-(4-(6-methyl-7H-pyrrolo[2,3-d]pyrimidinyl)amino)-N-(4-((4-methyl-1-piperazinyl)methyl)phenyl)-1H-3-pyrazolecarboxamide], the IC50 on FGFR3 came to 811 nM; on CDK2/cyclin A (setting [10]), 15 nM; at FGFR1 (setting [1]), 305 nM; on JNK1 (setting [2]), 1550 nM; on KDR/VEGFR2 (setting [11]), 39 nM; on FGFR2 (setting [3]) it was 234 nM. For the same compound, the IC50 is 191 nM at CDK3/cyclin E (setting [12]); 97 nM at CDK1/cyclin E (setting [4]); 10 nM on CDK2/Cyclin A1 (setting [13]); 583 nM on CDK7/cyclin H (setting [5]); 795 nM on JAK2 (setting [6]); 23 nM at FLT1/VEGFR1 (setting [14]). Moreover, the IC50 at CDK4/cyclin D1 (setting [15]) was determined as 8 nM; on CDK1/cyclin A (setting [16]) it was 158 nM; at JNK2 (setting [7]), 1650 nM; at ERK7/MAPK15 (setting [17]), 8 nM; at CDK5/p35 (setting [8]), 15 nM; on CDK1/cyclin B (setting [9]), 88 nM. Also, the inhibition at 1 µM at Aurora A amounted to 60.8%; at CDK2/A, 67%.

With `CN1CCN(Cc2ccc(NC(=O)c3n[nH]cc3Nc3ncnc4occc34)cc2)CC1` [Compound I-21, 4-(4-furo[2,3-d]pyrimidinylamino)-N-(4-((4-methyl-1-piperazinyl)methyl)phenyl)-1H-3-pyrazolecarboxamide], the IC50 on FGFR3 turned out to be 890 nM; on CDK2/cyclin A (setting [10]) it was 17 nM; at FGFR1 (setting [1]), 335 nM; at JNK1 (setting [2]) it was 1430 nM; on KDR/VEGFR2 (setting [11]), 41 nM; at FGFR2 (setting [3]), 257 nM. The IC50 on CDK3/cyclin E (setting [12]) came out at 210 nM; on CDK1/cyclin E (setting [4]) it was 106 nM; on CDK2/Cyclin A1 (setting [13]), 11 nM; at CDK7/cyclin H (setting [5]), 611 nM; at JAK2 (setting [6]), 875 nM; on FLT1/VEGFR1 (setting [14]), 24 nM. The IC50 was determined as 7 nM at CDK4/cyclin D1 (setting [15]); 173 nM at CDK1/cyclin A (setting [16]); 1490 nM at JNK2 (setting [7]); 8 nM on ERK7/MAPK15 (setting [17]); 16 nM on CDK5/p35 (setting [8]); 96 nM on CDK1/cyclin B (setting [9]). For the same compound, the inhibition at 1 µM was found to be 60.8% on Aurora A and 66% at CDK2/A.
